Data from patent US20260060250A1, “HERBICIDAL PYRIDONE DERIVATIVES” (SYNGENTA CROP PROTECTION AG, priority 2022, published 2026).

Tests used:
Format in all cases: in vivo
[1] = tested on: Setaria faberi (SETFA); experiment: Pre-emergence Test (Table B1); details: 1000 g/ha, evaluated after 13 days
[2] = tested on: Amaranthus palmeri (AMAPA); experiment: Post-emergence Test (Table B2); details: evaluated after 13 days
Protocol: (§1) Seeds of a variety of test species are sown in standard soil in pots (Amaranthus palmeri (AMAPA), Setaria faberi (SETFA), Echinochloa crus-galli (ECHCG), (Amaranthus retroflexus (AMARE), Zea mays (ZEAMX), Ipomoea hederacea (IPOHE)). After 8 days cultivation under controlled conditions in a glasshouse (at 24° C./16° C., day/night; 14 hours light; 65% humidity), the plants are sprayed with an aqueous spray solution derived from the formulation of the technical active ingredient in acetone/water (50:50) solution containing 0.5% Tween 20 (polyoxyethelyene sorbitan monolaurate, CAS RN 9005-64-5). Compounds are applied at 1000 g/ha unless otherwise stated. The test plants are then grown in a glasshouse under controlled conditions in a glasshouse (at 24° C./16° C., day/night; 14 hours light; 65% humidity) and watered twice daily. After 13 days the test is evaluated for the percentage damage caused to the plant.

[3] = tested on: Setaria faberi (SETFA); experiment: Post-emergence Test (Table B2); details: evaluated after 13 days
Protocol: as §1

[4] = tested on: Amaranthus retroflexus (AMARE); experiment: Post-emergence Test (Table B2); details: evaluated after 13 days
Protocol: as §1

[5] = tested on: Zea mays (ZEAMX); experiment: Pre-emergence Test (Table B1); set-up: key: 5=81-100%; 4=61-80%; 3=41-60%; 2=21-40%; 1=0-20%; 0=inactive; details: 1000 g/ha, evaluated after 13 days
[6] = tested on: Echinochloa crus-galli (ECHCG); experiment: Pre-emergence Test (Table B1); set-up: key: 5=81-100%; 4=61-80%; 3=41-60%; 2=21-40%; 1=0-20%; 0=inactive; details: 1000 g/ha, evaluated after 13 days
[7] = tested on: Amaranthus palmeri (AMAPA); experiment: Pre-emergence Test (Table B1); details: 1000 g/ha, evaluated after 13 days
[8] = tested on: Ipomoea hederacea (IPOHE); experiment: Pre-emergence Test (Table B1); set-up: key: 5=81-100%; 4=61-80%; 3=41-60%; 2=21-40%; 1=0-20%; 0=inactive; details: 1000 g/ha, evaluated after 13 days
[9] = tested on: Zea mays (ZEAMX); experiment: Post-emergence Test (Table B2); set-up: key: 5=81-100%; 4=61-80%; 3=41-60%; 2=21-40%; 1=0-20%; 0=inactive; details: evaluated after 13 days
Protocol: as §1

[10] = tested on: Ipomoea hederacea (IPOHE); experiment: Post-emergence Test (Table B2); set-up: key: 5=81-100%; 4=61-80%; 3=41-60%; 2=21-40%; 1=0-20%; 0=inactive; details: evaluated after 13 days
Protocol: as §1

[11] = tested on: Echinochloa crus-galli (ECHCG); experiment: Post-emergence Test (Table B2); set-up: key: 5=81-100%; 4=61-80%; 3=41-60%; 2=21-40%; 1=0-20%; 0=inactive; details: evaluated after 13 days
Protocol: as §1

[12] = tested on: Amaranthus retroflexus (AMARE); experiment: Pre-emergence Test (Table B1); details: 1000 g/ha, evaluated after 13 days
[13] = lower rate of 250 g per hectare

Structure (SMILES) | percentage damage caused to the plant, SETFA [1] | percentage damage caused to the plant, AMAPA ([2]; 1000 g/ha) | percentage damage caused to the plant, SETFA ([3]; 1000 g/ha) | percentage damage caused to the plant, AMARE ([4]; 1000 g/ha) | percentage damage caused to the plant, ZEAMX [5] | percentage damage caused to the plant, ECHCG [6] | percentage damage caused to the plant, AMAPA [7] | percentage damage caused to the plant, IPOHE [8] | percentage damage caused to the plant, ZEAMX ([9]; 1000 g/ha) | percentage damage caused to the plant, IPOHE ([10]; 1000 g/ha) | percentage damage caused to the plant, ECHCG ([11]; 1000 g/ha) | percentage damage caused to the plant, AMARE [12] | percentage damage caused to the plant, AMAPA [2, 13] | percentage damage caused to the plant, SETFA [3, 13] | percentage damage caused to the plant, AMARE [4, 13] | percentage damage caused to the plant, ZEAMX [9, 13] | percentage damage caused to the plant, IPOHE [10, 13] | percentage damage caused to the plant, ECHCG [11, 13]
C=C(C)COC(=O)c1cc(-c2c(C)n(CC)c(-c3ccc(Cl)c(Cl)c3)c(C(=O)O)c2=O)c(F)cc1Cl [Compound 1, 5-[4-chloro-2-fluoro-5-(2-methylallyloxycarbonyl)phenyl]-2-(3,4-dichlorophenyl)-1-ethyl-6-methyl-4-oxo-pyridine-3-carboxylic acid] | 4 (4=61-80%) | 5 (5=81-100%) | 4 (4=61-80%) | 5 (5=81-100%) | 0 | 1 (1=0-20%) | 5 (5=81-100%) | 2 (2=21-40%) | 2 (2=21-40%) | 2 (2=21-40%) | 5 (5=81-100%) | 5 (5=81-100%) |  |  |  |  |  | 
C#CCOC(=O)c1cc(-c2c(C)n(CC)c(-c3ccc(Cl)c(Cl)c3)c(C(=O)O)c2=O)c(F)cc1Cl [Compound 2, 5-(4-chloro-2-fluoro-5-prop-2-ynoxycarbonyl-phenyl)-2-(3,4-dichlorophenyl)-1-ethyl-6-methyl-4-oxo-pyridine-3-carboxylic acid] | 1 (1=0-20%) | 5 (5=81-100%) | 5 (5=81-100%) | 5 (5=81-100%) | 0 | 0 | 5 (5=81-100%) | 0 | 5 (5=81-100%) | 4 (4=61-80%) | 4 (4=61-80%) | 5 (5=81-100%) |  |  |  |  |  | 
C=CCOC(=O)c1cc(-c2c(C)n(CC)c(-c3ccc(Cl)c(Cl)c3)c(C(=O)O)c2=O)c(F)cc1Cl [Compound 3, 5-(5-allyloxycarbonyl-4-chloro-2-fluoro-phenyl)-2-(3,4-dichlorophenyl)-1-ethyl-6-methyl-4-oxo-pyridine-3-carboxylic acid] | 1 (1=0-20%) | 5 (5=81-100%) | 5 (5=81-100%) | 5 (5=81-100%) | 0 | 0 | 5 (5=81-100%) | 2 (2=21-40%) | 4 (4=61-80%) | 4 (4=61-80%) | 5 (5=81-100%) | 5 (5=81-100%) |  |  |  |  |  | 
C=CC(C)OC(=O)c1ccc(F)c(-c2c(C)n(CC)c(-c3ccc(Cl)c(Cl)c3)c(C(=O)O)c2=O)c1 (centres unmarked) [Compound 5, 2-(3,4-dichlorophenyl)-1-ethyl-5-[2-fluoro-5-(1-methylallyloxycarbonyl)phenyl]-6-methyl-4-oxo-pyridine-3-carboxylic acid] |  |  |  |  |  |  |  |  |  |  |  |  | 3 (3=41-60%) | 1 (1=0-20%) | 2 (2=21-40%) | 2 (2=21-40%) | 1 (1=0-20%) | 0
CCn1c(C)c(-c2cc(C(=O)OC(C)CN(C)C)ccc2F)c(=O)c(C(=O)O)c1-c1ccc(Cl)c(Cl)c1 (centres unmarked) [Compound 6, 2-(3,4-dichlorophenyl)-5-[5-[2-(dimethylamino)-1-methyl-ethoxy]carbonyl-2-fluoro-phenyl]-1-ethyl-6-methyl-4-oxo-pyridine-3-carboxylic acid] |  | 4 (4=61-80%) | 1 (1=0-20%) | 3 (3=41-60%) |  |  |  |  | 1 (1=0-20%) | 0 | 1 (1=0-20%) |  |  |  |  |  |  | 
CCn1c(C)c(-c2cc(C(=O)OC(C)C(F)(F)F)ccc2F)c(=O)c(C(=O)O)c1-c1ccc(Cl)c(Cl)c1 (centres unmarked) [Compound 7, 2-(3,4-dichlorophenyl)-1-ethyl-5-[2-fluoro-5-(2,2,2-trifluoro-1-methyl-ethoxy)carbonyl-phenyl]-6-methyl-4-oxo-pyridine-3-carboxylic acid] | 2 (2=21-40%) | 5 (5=81-100%) | 4 (4=61-80%) | 5 (5=81-100%) | 1 (1=0-20%) | 2 (2=21-40%) | 5 (5=81-100%) | 1 (1=0-20%) | 2 (2=21-40%) | 1 (1=0-20%) | 3 (3=41-60%) | 5 (5=81-100%) |  |  |  |  |  | 
CCn1c(C)c(-c2cc(C(=O)OC(C)C3CCCC3)ccc2F)c(=O)c(C(=O)O)c1-c1ccc(Cl)c(Cl)c1 (centres unmarked) [Compound 16, 5-[5-(1-cyclopentylethoxycarbonyl)-2-fluoro-phenyl]-2-(3,4-dichlorophenyl)-1-ethyl-6-methyl-4-oxo-pyridine-3-carboxylic acid] |  | 4 (4=61-80%) | 1 (1=0-20%) | 5 (5=81-100%) |  |  |  |  | 1 (1=0-20%) | 0 | 0 |  |  |  |  |  |  | 
C#CCC(C)OC(=O)c1ccc(F)c(-c2c(C)n(CC)c(-c3ccc(Cl)c(Cl)c3)c(C(=O)O)c2=O)c1 (centres unmarked) [Compound 17, 2-(3,4-dichlorophenyl)-1-ethyl-5-[2-fluoro-5-(1-methylbut-3-ynoxycarbonyl)phenyl]-6-methyl-4-oxo-pyridine-3-carboxylic acid] | 2 (2=21-40%) | 5 (5=81-100%) | 2 (2=21-40%) | 5 (5=81-100%) | 1 (1=0-20%) | 1 (1=0-20%) | 5 (5=81-100%) | 2 (2=21-40%) | 1 (1=0-20%) |  | 2 (2=21-40%) | 5 (5=81-100%) |  |  |  |  |  | 
CCn1c(C)c(-c2cc(C(=O)OC(C)C#N)ccc2F)c(=O)c(C(=O)O)c1-c1ccc(Cl)c(Cl)c1 (centres unmarked) [Compound 41, 5-[5-(1-cyanoethoxycarbonyl)-2-fluoro-phenyl]-2-(3,4-dichlorophenyl)-1-ethyl-6-methyl-4-oxo-pyridine-3-carboxylic acid] |  |  |  |  |  |  |  |  |  |  |  |  | 2 (2=21-40%) | 2 (2=21-40%) | 2 (2=21-40%) | 0 | 1 (1=0-20%) | 0
